The values below are quoted from earlier work in patent US20080260818A1, “Controlled Absorption of Statins in the Intestine” (DEXCEL PHARMA TECHNOLOGIES LTD., priority 2005, published 2008).

The target of one data set is T1, HMG-CoA reductase (Homo sapiens, UniProt P04035).
T1 sequence (P04035 1-888): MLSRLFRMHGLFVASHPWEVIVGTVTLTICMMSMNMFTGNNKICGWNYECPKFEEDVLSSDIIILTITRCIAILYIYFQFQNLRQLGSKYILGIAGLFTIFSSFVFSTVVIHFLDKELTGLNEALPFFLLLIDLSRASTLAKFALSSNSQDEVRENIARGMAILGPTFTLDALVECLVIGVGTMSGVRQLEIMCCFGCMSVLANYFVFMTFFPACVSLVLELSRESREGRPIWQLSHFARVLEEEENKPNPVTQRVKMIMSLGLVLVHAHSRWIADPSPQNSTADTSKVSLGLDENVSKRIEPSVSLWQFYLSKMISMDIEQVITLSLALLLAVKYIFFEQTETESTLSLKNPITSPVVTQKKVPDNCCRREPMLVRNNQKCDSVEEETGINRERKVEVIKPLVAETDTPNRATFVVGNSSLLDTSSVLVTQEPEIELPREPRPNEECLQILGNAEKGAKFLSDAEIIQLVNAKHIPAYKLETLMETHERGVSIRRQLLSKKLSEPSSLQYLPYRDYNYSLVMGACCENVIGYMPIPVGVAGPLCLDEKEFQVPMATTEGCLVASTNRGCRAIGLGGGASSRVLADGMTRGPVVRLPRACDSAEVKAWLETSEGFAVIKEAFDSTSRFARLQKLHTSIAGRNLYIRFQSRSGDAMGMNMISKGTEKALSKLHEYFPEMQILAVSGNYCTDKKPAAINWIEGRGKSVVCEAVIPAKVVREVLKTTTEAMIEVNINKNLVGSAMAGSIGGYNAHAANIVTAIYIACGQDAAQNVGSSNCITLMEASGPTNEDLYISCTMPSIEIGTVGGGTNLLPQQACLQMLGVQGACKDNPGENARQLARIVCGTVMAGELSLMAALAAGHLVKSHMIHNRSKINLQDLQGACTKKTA
As to conditions: considering the beta-hydroxy acid form as the drug.

In data set [1] the test system is plasma proteins, primarily albumin. As to conditions: Simvastatin and its active acid forms.

The structures appear in SMILES notation.

As to `CCC(C)(C)C(=O)OC1CC(C)(O)C=C2C=CC(C)C(CCC3CC(O)CC(=O)O3)C21` (stereo not drawn) [6-beta-hydroxy simvastatin], on HMG-CoA reductase, the “HMG-CoA reductase activity retained” value was roughly 50%. Regarding `CCC(C)(C)C(=O)OC1CC(CO)C=C2C=CC(C)C(CCC3CC(O)CC(=O)O3)C21` (stereo not drawn) [6-beta-hydroxymethyl], the “HMG-CoA reductase activity retained” value at HMG-CoA reductase is listed as “approximately 40%”.

For `CCC(C)(C)C(=O)O[C@H]1C[C@@H](C)C=C2C=C[C@H](C)[C@H](CC[C@@H]3C[C@@H](O)CC(=O)O3)[C@H]21` [simvastatin], the “bound to plasma proteins, primarily to albumin” value in data set [1] was “more than 95%”.
